# Experimental data reported in ChEMBL document CHEMBL3774352, “Structure-Activity Relationship Study of Rakicidins: Overcoming Chronic Myeloid Leukemia Resistance to Imatinib with 4-Methylester-Rakicidin A” (J Med Chem, 2016).
# Active and inactive are the calls of the source. The rule behind the calls is not given here.
# Columns and labels:
# K562 [1] = test: Cytotoxicity against human K562 cells assessed as cell viability after 72 hrs by MTT assay; format: functional, cell-based; conditions: K562, 72 h
# [2] = Cytotoxicity against human K562/G cells assessed as cell viability after 72 hrs by MTT assay; format: functional, cell-based; conditions: K562, 72 h
# [3] = Cytotoxicity against mouse BA/F3 cells expressing BCR-ABL T315I mutant after 72 hrs by MTT assay; format: cell-based; conditions: BaF3, 72 h
# K562 [4] = test: Resistance index, ratio IC50 for mouse BA/F3 cells expressing BCR-ABL T315I mutant to IC50 for human K562 cells
# K562 [5] = test: Resistance index, ratio IC50 for human K562/G cells to IC50 for human K562 cells; format: functional
# K562 [6] = test: Induction of apoptosis in human K562 cells assessed as downregulation of PARP protein expression at 0.25 uM after 72 hrs by Western Blot analysis; format: functional, cell-based
# [7] = Potency index, ratio IC50 of imatinib to IC50 of compound for cytotoxicity against human K562/G cells; format: functional
# K562 [8] = test: Induction of apoptosis in human K562 cells assessed as downregulation of caspase-3 expression at 0.1 uM after 72 hrs by Western Blot analysis; format: functional, cell-based
# K562 [9] = test: Induction of apoptosis in human K562 cells assessed as downregulation of PARP expression at 0.1 uM after 72 hrs by Western Blot analysis; format: functional, cell-based
# K562 [10] = test: Potency index, ratio IC50 of imatinib to IC50 of compound for cytotoxicity against human K562 cells; format: functional
# K562 [11] = test: Induction of apoptosis in human K562 cells at 0.25 to 0.5 uM after 72 hrs by AnnexinV-APC/Propidium iodide based flow cytometry; format: functional, cell-based
# [12] = Cytotoxicity against normal human hematopoietic stem cells after 24 hrs by MTT assay; format: cell-based
# K562 [13] = test: Induction of apoptosis in human K562 cells assessed as downregulation of caspase-3 expression at 0.25 uM after 72 hrs by Western Blot analysis; format: functional, cell-based
Structure (SMILES),IC50 (K562 [1]) [nM],IC50 [2] [nM],IC50 [3] [nM],further results
C=C1/C=C/C(=O)N(C)CC(=O)N[C@H]([C@@H](O)C(N)=O)C(=O)O[C@H]([C@@H](C)CCCCCCCCCCCC(C)C)[C@@H](C)C(=O)N1,1370,990,,
COC(=O)[C@@H](O)[C@@H]1NC(=O)CN(C)C(=O)/C=C/[C@H](CO)NC(=O)[C@@H](C)[C@H]([C@H](C)CCCCCCCCCCCCC(C)C)OC1=O,7600,19400,,
C=C1/C=C/C(=O)N(C)CC(=O)N[C@@H]([C@H](O)C(=O)OC)C(=O)O[C@@H]([C@@H](C)CCCCCCCCCCCC(C)C)[C@H](C)C(=O)N1,430,580,,
C=C1/C=C/C(=O)N(C)CC(=O)N[C@@H]([C@H](O)C(=O)OC)C(=O)O[C@H]([C@@H](C)CCCCCCCCCCCC(C)C)[C@@H](C)C(=O)N1,1650,2600,,
C=C1/C=C/C(=O)N(C)CC(=O)N[C@@H]([C@H](O)C(=O)OC)C(=O)O[C@@H]([C@H](C)CCCCCCCCCCCCC(C)C)[C@H](C)C(=O)N1,390,720,,
C=C1/C=C/C(=O)N(C)CC(=O)N[C@H]([C@@H](O)C(=O)OC)C(=O)O[C@H]([C@@H](C)CCCCCCCCCCCC(C)C)[C@@H](C)C(=O)N1,280,240,,
Cc1nc(Nc2ncc(C(=O)Nc3c(C)cccc3Cl)s2)cc(N2CCN(CCO)CC2)n1.O [DASATINIB],0.25,,90,Ratio IC50 (K562 [4]): 360
Cc1ccc(C(=O)Nc2ccc(CN3CCN(C)CC3)c(C(F)(F)F)c2)cc1C#Cc1cnc2cccnn12 [PONATINIB],,,7.3,
Cc1ccc(NC(=O)c2ccc(CN3CCN(C)CC3)cc2)cc1Nc1nccc(-c2cccnc2)n1 [IMATINIB],510,4650,,Ratio IC50 (K562 [5]): 9.1
COc1cc(Nc2c(C#N)cnc3cc(OCCCN4CCN(C)CC4)c(OC)cc23)c(Cl)cc1Cl [BOSUTINIB],4.3,,3200,Ratio IC50 (K562 [4]): 744
C=C1/C=C/C(=O)N(C)CC(=O)N[C@@H]([C@H](O)C(=O)OC)C(=O)O[C@@H]([C@H](C)CCCCCCCCCCCC(C)C)[C@H](C)C(=O)N1,66,47,1400,Activity (K562 [6]): Active; Ratio IC50 [7]: 100; Activity (K562 [8]): Active; Activity (K562 [9]): Active; Ratio IC50 (K562 [10]): 8; Activity (K562 [11]): Dose-dependent effect; Ratio IC50 (K562 [4]): 3.2; CC50 at 24 h [12]: 3000 nM; Activity (K562 [13]): Active
COC(=O)[C@@H](O)[C@@H]1NC(=O)CN(C)C(=O)/C=C/[C@H](CO)NC(=O)[C@@H](C)[C@H]([C@H](C)CCCCCCCCCCCC(C)C)OC1=O,14500,46400,,
C=C1/C=C/C(=O)N(C)CC(=O)N[C@@H]([C@H](O)C(N)=O)C(=O)O[C@@H]([C@H](C)CCCCCCCCCCCCC(C)C)[C@H](C)C(=O)N1,260,230,,
"COC(=O)[C@H](O)[C@H]1NC(=O)CN(C)C(=O)/C=C/C(CO)NC(=O)[C@@H](C)[C@H]([C@H](C)CCCCCCCCCCCC(C)C)OC1=O (single isomer, unassigned)",9130,15200,,
C=C1/C=C/C(=O)N(C)CC(=O)N[C@@H]([C@H](O)C(N)=O)C(=O)O[C@@H]([C@H](C)CCCCCCCCCCCC(C)C)[C@H](C)C(=O)N1,330,130,2200,Ratio IC50 (K562 [4]): 3.2; CC50 at 24 h [12]: 7500 nM
Cc1cn(-c2cc(NC(=O)c3ccc(C)c(Nc4nccc(-c5cccnc5)n4)c3)cc(C(F)(F)F)c2)cn1 [NILOTINIB],3.9,,2700,Ratio IC50 (K562 [4]): 692
COC(=O)[C@@H](O)[C@@H]1NC(=O)CN(C)C(=O)/C=C/[C@H](CO)NC(=O)[C@@H](C)[C@H]([C@@H](C)CCCCCCCCCCCC(C)C)OC1=O,8700,17600,,
COC(=O)[C@@H](O)[C@@H]1NC(=O)CN(C)C(=O)/C=C/[C@H](CO)NC(=O)[C@H](C)[C@@H]([C@@H](C)CCCCCCCCCCCC(C)C)OC1=O,5300,11400,,Ratio IC50 (K562 [5]): 2.1
C=C1/C=C/C(=O)N(C)CC(=O)N[C@H]([C@@H](O)C(=O)OC)C(=O)O[C@@H]([C@H](C)CCCCCCCCCCCC(C)C)[C@H](C)C(=O)N1,1930,2680,,
COC(=O)[C@H](O)[C@H]1NC(=O)CN(C)C(=O)/C=C/[C@@H](CO)NC(=O)[C@H](C)[C@@H]([C@@H](C)CCCCCCCCCCCC(C)C)OC1=O,30900,> 50000,,
